Here are results for 40 compounds from patent US10479784B2, “Substituted pyrazin-2-amines as inhibitors of ATR kinase” (Vertex Pharmaceuticals Incorporated, priority 2008, dated 2019).

Chain of full-length ATR (Q13535 whole entry): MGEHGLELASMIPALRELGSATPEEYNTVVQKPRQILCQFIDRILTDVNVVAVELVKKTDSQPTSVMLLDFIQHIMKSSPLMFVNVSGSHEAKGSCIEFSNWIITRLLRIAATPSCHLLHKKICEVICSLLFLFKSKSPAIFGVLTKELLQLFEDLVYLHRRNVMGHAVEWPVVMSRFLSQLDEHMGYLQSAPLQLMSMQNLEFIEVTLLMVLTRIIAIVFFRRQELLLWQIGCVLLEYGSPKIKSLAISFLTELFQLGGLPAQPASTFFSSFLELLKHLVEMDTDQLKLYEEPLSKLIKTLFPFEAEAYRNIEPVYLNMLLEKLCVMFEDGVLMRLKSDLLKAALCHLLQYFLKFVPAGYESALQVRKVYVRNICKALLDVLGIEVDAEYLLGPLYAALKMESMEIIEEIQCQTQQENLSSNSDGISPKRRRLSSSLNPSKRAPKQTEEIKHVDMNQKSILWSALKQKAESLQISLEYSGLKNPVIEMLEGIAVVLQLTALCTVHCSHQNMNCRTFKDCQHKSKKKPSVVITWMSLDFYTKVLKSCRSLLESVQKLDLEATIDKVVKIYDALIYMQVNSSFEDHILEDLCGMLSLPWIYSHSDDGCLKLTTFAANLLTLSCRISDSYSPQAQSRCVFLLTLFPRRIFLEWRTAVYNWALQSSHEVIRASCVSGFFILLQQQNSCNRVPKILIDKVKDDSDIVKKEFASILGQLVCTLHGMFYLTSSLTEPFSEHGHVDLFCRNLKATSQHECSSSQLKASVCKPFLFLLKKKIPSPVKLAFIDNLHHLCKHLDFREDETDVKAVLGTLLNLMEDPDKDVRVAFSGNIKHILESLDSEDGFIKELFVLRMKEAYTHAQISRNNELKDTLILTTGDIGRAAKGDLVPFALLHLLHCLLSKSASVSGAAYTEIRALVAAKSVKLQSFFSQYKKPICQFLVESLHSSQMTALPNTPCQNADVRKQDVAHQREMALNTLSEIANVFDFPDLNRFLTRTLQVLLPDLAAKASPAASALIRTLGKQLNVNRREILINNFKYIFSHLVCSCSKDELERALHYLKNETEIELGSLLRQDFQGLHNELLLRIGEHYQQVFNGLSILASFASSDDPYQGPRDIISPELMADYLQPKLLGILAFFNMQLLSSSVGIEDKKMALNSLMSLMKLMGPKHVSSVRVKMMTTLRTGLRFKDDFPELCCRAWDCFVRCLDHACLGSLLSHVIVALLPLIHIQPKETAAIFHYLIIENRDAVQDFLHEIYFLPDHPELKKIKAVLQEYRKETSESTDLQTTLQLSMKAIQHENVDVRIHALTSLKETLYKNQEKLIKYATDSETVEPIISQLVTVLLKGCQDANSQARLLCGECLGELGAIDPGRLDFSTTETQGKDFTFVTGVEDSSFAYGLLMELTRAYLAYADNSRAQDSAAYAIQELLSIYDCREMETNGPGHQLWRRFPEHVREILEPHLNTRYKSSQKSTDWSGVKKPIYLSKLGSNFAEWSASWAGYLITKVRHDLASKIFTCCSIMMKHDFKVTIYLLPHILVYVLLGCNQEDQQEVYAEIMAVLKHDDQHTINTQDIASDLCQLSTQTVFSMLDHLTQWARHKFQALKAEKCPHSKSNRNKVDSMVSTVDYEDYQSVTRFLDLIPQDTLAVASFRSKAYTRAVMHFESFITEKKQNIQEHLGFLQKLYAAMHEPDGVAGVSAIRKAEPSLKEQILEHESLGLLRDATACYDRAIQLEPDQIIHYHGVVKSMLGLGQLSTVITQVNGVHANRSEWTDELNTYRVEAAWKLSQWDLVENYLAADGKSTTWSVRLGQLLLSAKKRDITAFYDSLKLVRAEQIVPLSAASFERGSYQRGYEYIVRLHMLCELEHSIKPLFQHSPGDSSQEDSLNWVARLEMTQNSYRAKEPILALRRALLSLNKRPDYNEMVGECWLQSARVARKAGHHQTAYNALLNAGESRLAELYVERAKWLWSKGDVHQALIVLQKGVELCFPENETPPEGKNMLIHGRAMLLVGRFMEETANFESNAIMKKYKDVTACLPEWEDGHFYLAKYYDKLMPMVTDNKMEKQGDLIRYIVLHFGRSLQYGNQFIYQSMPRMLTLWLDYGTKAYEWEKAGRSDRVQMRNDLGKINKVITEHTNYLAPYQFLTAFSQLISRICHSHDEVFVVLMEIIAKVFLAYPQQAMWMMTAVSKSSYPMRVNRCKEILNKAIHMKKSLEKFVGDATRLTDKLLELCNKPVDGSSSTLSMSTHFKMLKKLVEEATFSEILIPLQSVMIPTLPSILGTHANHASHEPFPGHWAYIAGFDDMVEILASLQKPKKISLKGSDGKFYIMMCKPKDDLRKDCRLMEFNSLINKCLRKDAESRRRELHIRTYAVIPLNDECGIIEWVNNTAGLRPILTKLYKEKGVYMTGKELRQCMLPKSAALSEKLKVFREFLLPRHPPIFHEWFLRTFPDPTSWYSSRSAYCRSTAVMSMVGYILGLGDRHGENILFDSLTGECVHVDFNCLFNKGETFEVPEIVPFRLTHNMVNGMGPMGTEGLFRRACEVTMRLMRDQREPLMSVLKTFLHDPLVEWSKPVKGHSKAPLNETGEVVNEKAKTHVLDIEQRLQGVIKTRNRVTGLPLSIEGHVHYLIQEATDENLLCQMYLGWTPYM

The target in the test is full-length ATR (Homo sapiens (Human), UniProt Q13535). Kind of test: ATR Inhibition Assay (radioactive-phosphate incorporation). In kind it is biochemical. The settings on record: read-out: ATR Ki. In short, it runs like this:
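Ki(app) was derived by non-linear regression of background-corrected initial rates of 33P incorporation into an 800 μM target peptide, read by phosphocellulose filter scintillation counting. Reaction conditions: 5 nM full-length ATR, 10 μM [γ-33P]ATP, pH 7.5 Tris buffer with MgCl2 and DTT, 25 °C, 10-min preincubation, 24 h run.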
`CNCc1ccc(-c2nnc(-c3nc(-c4ccc(S(=O)(=O)N(C)C)cc4)cnc3N)o2)cc1` [IA-296, 4-[5-amino-6-[5-[4-(methylaminomethyl)phenyl]-1,3,4-oxadiazol-2-yl]pyrazin-2-yl]-N,N-dimethyl-benzenesulfonamide]: the Ki was no more than 10 nM. In the case of `Nc1ncc(-c2ccc(F)cc2)nc1C(=O)Nc1ccccc1` [Compound I-4, 3-amino-6-(4-fluorophenyl)-N-phenylpyrazine-2-carboxamide], the inhibition constant Ki was 100 to 5000 nM. Consider `NC(=O)C1CCN(C(=O)c2cccc(-c3cnc(N)c(C(=O)Nc4ccccc4)n3)c2)CC1` [Compound I-62, 3-amino-6-(3-(4-carbamoylpiperidine-1-carbonyl)phenyl)-N-phenylpyrazine-2-carboxamide], for which the inhibition constant (Ki) is 100 to 5000 nM. Consider `CNCc1ccc(-c2cc(-c3nc(-c4ccc(S(=O)(=O)C(C)C)cc4)cnc3N)on2)c(C)c1` [IIA-12, 5-(4-isopropylsulfonylphenyl)-3-[3-[2-methyl-4-(methylaminomethyl)phenyl]isoxazol-5-yl]pyrazin-2-amine], for which the Ki is no more than 10 nM. Consider `CN(C)C(=O)c1ccc(-c2cnc(N)c(-c3nnc(Nc4cccnc4)o3)n2)cc1` [IA-44], for which the Ki was in the range of 10 to 100 nM. On to `COc1ccccc1NC(=O)c1nc(-c2cccnc2)cnc1N` [Compound I-106, 3-amino-N-(2-methoxyphenyl)-6-(pyridin-3-yl)pyrazine-2-carboxamide], for which the Ki lay in the range of 10 to 100 nM. Take `CN(C)C1CCN(C(=O)c2c(F)cc(-c3cnc(N)c(-c4nnc(-c5ccccc5)o4)n3)cc2F)CC1` [IA-21]: the Ki lay within 10 to 100 nM. For the compound `CNCc1ccc(-c2nnc(-c3nc(-c4ccc(S(=O)(=O)C(C)C)c(F)c4)cnc3N)o2)c(F)c1` [IA-321, 5-(3-fluoro-4-isopropylsulfonyl-phenyl)-3-[5-[2-fluoro-4-(methylaminomethyl)phenyl]-1,3,4-oxadiazol-2-yl]pyrazin-2-amine], the inhibition constant (Ki) was no more than 10 nM. For the compound `CN1CCN(c2ccc(-c3cnc(N)c(-c4nnc(-c5ccccc5)o4)n3)cn2)CC1` [IA-200, 5-(6-(4-methylpiperazin-1-yl)pyridin-3-yl)-3-(5-phenyl-1,3,4-oxadiazol-2-yl)pyrazin-2-amine], the Ki is 100 to 5000 nM. Take `CN1CCC(NC(=O)c2ccc(-c3cnc(N)c(C(=O)Nc4ccccc4)n3)cc2)CC1` [Compound I-64, 3-amino-6-(4-(1-methylpiperidin-4-ylcarbamoyl)phenyl)-N-phenylpyrazine-2-carboxamide]: the Ki lay within 100 to 5000 nM. As to `CC(C)S(=O)(=O)c1ccc(-c2cnc(N)c(-c3nnc(-c4ccc(C(C)(C)N)cc4)o3)n2)cc1` [IA-311, 3-[5-[4-(1-amino-1-methyl-ethyl)phenyl]-1,3,4-oxadiazol-2-yl]-5-(4-isopropylsulfonylphenyl)pyrazin-2-amine], the Ki was no more than 10 nM.

For the compound `CC(C)S(=O)(=O)c1ccc(-c2cnc(N)c(-c3nnc(-c4cccc(C5CNC5)c4)o3)n2)cc1` [IA-185, 3-[5-[3-(azetidin-3-yl)phenyl]-1,3,4-oxadiazol-2-yl]-5-(4-isopropylsulfonylphenyl)pyrazin-2-amine], the inhibitory constant (Ki) was 10 to 100 nM. Under `Nc1ncc(-c2cccc(F)c2)nc1C(=O)Nc1ccccc1` [Compound I-9, 3-amino-6-(3-fluorophenyl)-N-phenylpyrazine-2-carboxamide] stands 100 to 5000 nM. As for `Nc1ncc(-c2ccccc2)nc1-c1nnc(-c2ccccc2)o1` [IA-49], the Ki was in the range of 10 to 100 nM.

On to `CN(C)Cc1ccccc1-c1cnc(N)c(-c2nnc(-c3ccccc3)o2)n1` [IA-118, 5-(2-((dimethylamino)methyl)phenyl)-3-(5-phenyl-1,3,4-oxadiazol-2-yl)pyrazin-2-amine], for which the Ki lay within 100 to 5000 nM. For the compound `CS(=O)(=O)c1ccc(-c2cnc(N)c(-c3nc4cccnc4[nH]3)n2)cc1` [Compound I-112, 3-(3H-imidazo[4,5-b]pyridin-2-yl)-5-(4-(methylsulfonyl)phenyl) pyrazin-2-amine], the inhibition constant Ki is no more than 10 nM. Under `CN(C)CCNc1cc(-c2cnc(N)c(-c3nnc(-c4ccccc4)o3)n2)ccn1` [IA-265, N′-[4-[5-amino-6-(5-phenyl-1,3,4-oxadiazol-2-yl)pyrazin-2-yl]-2-pyridyl]-N,N-dimethyl-ethane-1,2-diamine] stands 100 to 5000 nM; under `CNC(=N)c1ccc(-c2nnc(-c3nc(-c4ccc(S(=O)(=O)C(C)C)cc4)cnc3N)o2)cc1` [IA-208, 4-[5-[3-amino-6-(4-isopropylsulfonylphenyl)pyrazin-2-yl]-1,3,4-oxadiazol-2-yl]-N-methyl-benzamidine], no more than 10 nM; under `CNCc1ccc(-c2nnc(-c3nc(-c4ccc(S(=O)(=O)C(C)C)cc4C(F)F)cnc3N)o2)cc1` [IA-322, 5-[2-(difluoromethyl)-4-isopropylsulfonyl-phenyl]-3-[5-[4-(methylaminomethyl)phenyl]-1,3,4-oxadiazol-2-yl]pyrazin-2-amine], no more than 10 nM. In the case of `CS(=O)(=O)Nc1cccc(-c2cnc(N)c(C(=O)Nc3ccccc3)n2)c1` [Compound I-25, 3-amino-6-(3-(methylsulfonamido)phenyl)-N-phenylpyrazine-2-carboxamide], the Ki is 10 to 100 nM.

In the case of `Nc1ncc(-c2ccc(C(=O)NCCN3CCCC3)cc2)nc1-c1nc2ccccc2[nH]1` [Compound I-152, 4-(5-amino-6-(1H-benzo[d]imidazol-2-yl)pyrazin-2-yl)-N-(2-(pyrrolidin-1-yl)ethyl)benzamide], the Ki was in the range of 10 to 100 nM. Under `Nc1ncc(-c2ccc(C(=O)N3CCCNCC3)cc2C(F)(F)F)nc1-c1nnc(-c2ccccc2)o1` [IA-39] stands no more than 10 nM; under `C#Cc1nnc(-c2nc(-c3ccc(S(=O)(=O)C(C)C)cc3)cnc2N)o1` [IA-258, 3-(5-ethynyl-1,3,4-oxadiazol-2-yl)-5-(4-isopropylsulfonylphenyl)pyrazin-2-amine], no more than 10 nM; under `CN(C)C(=O)c1ccc(-c2cnc(N)c(-c3nnc(-c4ccccc4)o3)n2)cc1` [IA-23, 4-(5-amino-6-(5-phenyl-1,3,4-oxadiazol-2-yl)pyrazin-2-yl)-N,N-dimethylbenzamide], no more than 10 nM. In the case of `CC(C)S(=O)(=O)c1ccc(-c2cnc(N)c(-c3cc(-c4ccc(CN)cc4)no3)n2)cc1` [IIA-5, 3-[3-[4-(aminomethyl)phenyl]isoxazol-5-yl]-5-(4-isopropylsulfonylphenyl)pyrazin-2-amine], the inhibition constant (Ki) was no more than 10 nM. The value for `CCNCc1ccc(-c2nnc(-c3nc(-c4ccc(S(=O)(=O)C(C)C)cc4)cnc3N)o2)s1` [IA-83, 3-[5-[5-(ethylaminomethyl)-2-thienyl]-1,3,4-oxadiazol-2-yl]-5-(4-isopropylsulfonylphenyl)pyrazin-2-amine] was no more than 10 nM. Under `Nc1ncc(-c2ccc(C(=O)NCC3CCOCC3)cc2)nc1C(=O)Nc1ccccc1` [Compound I-69, 3-amino-N-phenyl-6-(4-((tetrahydro-2H-pyran-4-yl)methylcarbamoyl)phenyl)pyrazine-2-carboxamide] stands 100 to 5000 nM; under `CC(CN(C)C)S(=O)(=O)c1ccc(-c2cnc(N)c(-c3nnc(-c4ccccc4F)o3)n2)cc1` (stereo not shown) [IA-337, 5-[4-[2-(dimethylamino)-1-methyl-ethyl]sulfonylphenyl]-3-[5-(2-fluorophenyl)-1,3,4-oxadiazol-2-yl]pyrazin-2-amine], no more than 10 nM.

In the case of `Nc1ncc(-c2ccc(C(=O)NCCN3CCCCC3)cc2)nc1C(=O)Nc1ccccc1` [Compound I-49, 3-amino-N-phenyl-6-(4-(2-(piperidin-1-yl)ethylcarbamoyl)phenyl) pyrazine-2-carboxamide], the inhibition constant Ki lay in the range of 100 to 5000 nM.

For `N#Cc1ccc(-c2cnc(N)c(C(=O)Nc3ccccc3)n2)cc1` [Compound I-21, 3-amino-6-(4-cyanophenyl)-N-phenylpyrazine-2-carboxamide], the Ki is 10 to 100 nM. Under `N#Cc1cnccc1-c1cnc(N)c(C(=O)Nc2ccccc2)n1` [Compound I-2, 3-amino-6-(3-cyanopyridin-4-yl)-N-phenylpyrazine-2-carboxamide] stands no more than 10 nM.

For `Nc1ncc(-c2cccnc2)nc1C(=O)Nc1cccc(S(N)(=O)=O)c1` [Compound I-101, 3-amino-6-(pyridin-3-yl)-N-(3-sulfamoylphenyl)pyrazine-2-carboxamide], the inhibition constant Ki is 10 to 100 nM. In the case of `CN(C)c1cccc(NC(=O)c2nc(-c3cccnc3)cnc2N)c1` [Compound I-90, 3-amino-N-(3-(dimethylamino)phenyl)-6-(pyridin-3-yl)pyrazine-2-carboxamide], the inhibition constant (Ki) was 100 to 5000 nM.

As to “(R)-3-amino-N-phenyl-6-(4-(2-(pyrrolidin-1-ylmethyl)pyrrolidine-1-carbonyl)phenyl)pyrazine-2-carboxamide [Compound I-42]”, the inhibition constant Ki was 100 to 5000 nM.

As to `Nc1ncc(-c2cccc3cccnc23)nc1-c1nnc(-c2ccccc2)o1` [IA-216, 3-(5-phenyl-1,3,4-oxadiazol-2-yl)-5-(8-quinolyl)pyrazin-2-amine], the Ki fell in the range of 100 to 5000 nM. Turning to `CN(C)C(=O)c1ccc(-c2cnc(N)c(-c3nnc(-c4cscn4)o3)n2)cc1` [IA-180, 4-[5-amino-6-(5-thiazol-4-yl-1,3,4-oxadiazol-2-yl)pyrazin-2-yl]-N,N-dimethyl-benzamide], the Ki is 10 to 100 nM. `CS(=O)(=O)c1ccc(-c2cnc(N)c(-c3noc(-c4ccccc4)n3)n2)cc1` [Compound I-144, 5-(4-(methylsulfonyl)phenyl)-3-(5-phenyl-1,2,4-oxadiazol-3-yl)pyrazin-2-amine]: the Ki is no more than 10 nM. Consider `CCS(=O)(=O)c1ccc(-c2cnc(N)c(-c3nnc(-c4ccccc4)o3)n2)cc1` [IA-149, 5-(4-ethylsulfonylphenyl)-3-(5-phenyl-1,3,4-oxadiazol-2-yl)pyrazin-2-amine], for which the Ki is no more than 10 nM. Under `Nc1ncc(-c2ccn[nH]2)nc1C(=O)Nc1ccccc1` [Compound I-31, 3-amino-N-phenyl-6-(1H-pyrazol-5-yl)pyrazine-2-carboxamide] stands 10 to 100 nM. As to `CC(C)S(=O)(=O)c1ccc(-c2cnc(N)c(-c3nnc(NC(=O)C(C)(C)N)o3)n2)cc1` [IA-219, 2-amino-N-[5-[3-amino-6-(4-isopropylsulfonylphenyl)pyrazin-2-yl]-1,3,4-oxadiazol-2-yl]-2-methyl-propanamide], the Ki is 100 to 5000 nM.

As usually defined, the Ki is the dissociation constant of the complex between target and ligand, obtained from inhibition or displacement.
